Reference: patent publication US20060276464A1, “Diarylsulfone sulfonamides and use thereof” (Wyeth, priority 2005, published 2006)
Where two headings read alike, the source gives them in different places.

Target: T1, SFRP-1 (Homo sapiens, UniProt Q8N474)
T1 sequence (Q8N474 32-314): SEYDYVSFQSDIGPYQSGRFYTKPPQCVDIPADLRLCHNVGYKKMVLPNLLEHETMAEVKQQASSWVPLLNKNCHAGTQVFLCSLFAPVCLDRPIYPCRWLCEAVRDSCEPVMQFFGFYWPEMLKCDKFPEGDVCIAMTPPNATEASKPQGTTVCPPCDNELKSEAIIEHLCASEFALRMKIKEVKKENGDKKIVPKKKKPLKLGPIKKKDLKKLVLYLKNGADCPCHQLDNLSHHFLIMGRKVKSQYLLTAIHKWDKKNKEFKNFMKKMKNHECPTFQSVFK
Assay: Cell-based assay for in vitro measurement of SFRP-1/SARP2 antagonist activity (U2OS cells co-transfected with 16x TCF-tk-Luciferase reporter, Wnt and hSFRP-1);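 further: U2OS cells co-transfected with a TCF-tk luciferase reporter, a Wnt vector, hSFRP-1 or empty vector and CMV-βgal, luciferase luminescence read in cell lysates alongside βgal activity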
Conditions: for fold induction at 15 µM / fold induction at 10 µM: U2OS; for fold induction at 15 µM: single dose, luciferase reporter; for fold induction at 10 µM: read-out: Fold Induction with SFRP-1, U2OS cells, single dose 10 μM, luciferase reporter, fold induction over SFRP-1 control

[1] = read-out: Fold Induction with SFRP-1, Conc 15 μM, fold induction over SFRP-1 control, cells with SFRP-1
[2] = read-out: Fold Induction without SFRP-1, Conc 15 μM, cells without SFRP-1 (specificity control)

fold induction at 15 µM [1]	fold induction at 15 µM [2]	fold induction at 10 µM	EC50 [µM]	SMILES
1.3	1.1	–	–	Cc1ccc(S(=O)(=O)c2ccc(F)cc2)cc1S(=O)(=O)N(C(=O)C1CC1)C1CCN(C(=O)C2CC2)CC1 [Example 602, N-[1-(cyclopropylcarbonyl)piperidin-4-yl]-N-({5-[(4-fluorophenyl)sulfonyl]-2-methylphenyl}sulfonyl)cyclopropanecarboxamide]
2.7	1.1	–	–	O=S(=O)(NC1CCOCC1)c1cc(S(=O)(=O)c2ccc(F)cc2)ccc1Cl [Example 622, 2-chloro-5-[(4-fluorophenyl)sulfonyl]-N-(tetrahydro-2H-pyran-4-yl)benzenesulfonamide]
2.2	1.1	–	–	CC(C)(C)OC(=O)N1CCC(NS(=O)(=O)c2cc(S(=O)(=O)c3ccccc3)ccc2Cl)CC1 [Example 623, tert-butyl 4-({[2-chloro-5-(phenylsulfonyl)phenyl]sulfonyl}amino)piperidine-1-carboxylate]
2.7	1.2	–	–	O=S(=O)(NC1CCNCC1)c1cc(S(=O)(=O)c2ccccc2)ccc1Cl [Example 624, 2-chloro-5-(phenylsulfonyl)-N-piperidin-4-ylbenzenesulfonamide]
2	1.7	–	–	O=S(=O)(c1ccccc1)c1ccc(Cl)c(S(=O)(=O)N2CCC(N3CCCC3)CC2)c1 [Example 635, 1-{[2-chloro-5-(phenylsulfonyl)phenyl]sulfonyl}-4-pyrrolidin-1-ylpiperidine]
1.7	1.1	–	–	O=S(=O)(c1ccccc1)c1ccc(Cl)c(S(=O)(=O)N2CCN(CCN3CCOCC3)CC2)c1 [Example 636, 4-[2-(4-{[2-chloro-5-(phenylsulfonyl)phenyl]sulfonyl}piperazin-1-yl)ethyl]morpholine]
0.9	1	–	–	O=S(=O)(c1ccccc1)c1ccc(Cl)c(S(=O)(=O)N2CCN(Cc3ccc4c(c3)OCO4)CC2)c1 [Example 637, 1-(1,3-benzodioxol-5-ylmethyl)-4-{[2-chloro-5-(phenylsulfonyl)phenyl]sulfonyl}piperazine]
1.2	1.1	–	–	CC(C)(C)OC(=O)NC1CCN(S(=O)(=O)c2cc(S(=O)(=O)c3ccccc3)ccc2Cl)C1 (stereo not drawn) [Example 638, tert-butyl(1-{[2-chloro-5-(phenylsulfonyl)phenyl]sulfonyl}pyrrolidin-3-yl)carbamate]
0.9	1	–	–	CC(C)(C)OC(=O)NC1CCN(S(=O)(=O)c2cc(S(=O)(=O)c3ccccc3)ccc2Cl)CC1 [Example 639, tert-butyl(1-{[2-chloro-5-(phenylsulfonyl)phenyl]sulfonyl}piperidin-4-yl)carbamate]
2.2	1.1	–	–	CN1CCN(CCCNS(=O)(=O)c2cc(S(=O)(=O)c3ccccc3)ccc2Cl)CC1 [Example 642, 2-chloro-N-[3-(4-methylpiperazin-1-yl)propyl]-5-(phenylsulfonyl)benzenesulfonamide]
1.3	1.1	–	–	CCN(CC)C1CCN(S(=O)(=O)c2cc(S(=O)(=O)c3ccccc3)ccc2Cl)C1 (stereo not drawn) [Example 644, 1-{[2-chloro-5-(phenylsulfonyl)phenyl]sulfonyl}-N,N-diethylpyrrolidin-3-amine]
1	1.1	–	–	CCOC(=O)C1CCCN(S(=O)(=O)c2cc(S(=O)(=O)c3ccccc3)ccc2Cl)C1 (stereo not drawn) [Example 645, ethyl 1-{[2-chloro-5-(phenylsulfonyl)phenyl]sulfonyl}piperidine-3-carboxylate]
1	1.1	–	–	CN(CCc1ccccn1)S(=O)(=O)c1cc(S(=O)(=O)c2ccccc2)ccc1Cl [Example 646, 2-chloro-N-methyl-5-(phenylsulfonyl)-N-(2-pyridin-2-ylethyl)benzenesulfonamide]
1	1	–	–	Cc1ccc(C)n1CC1CCN(S(=O)(=O)c2cc(S(=O)(=O)c3ccccc3)ccc2Cl)CC1 [Example 653, 1-{[2-chloro-5-(phenylsulfonyl)phenyl]sulfonyl}-4-[(2,5-dimethyl-1H-pyrrol-1-yl)methyl]piperidine]
1	1	–	–	COC(=O)C(C)(C)NS(=O)(=O)c1cc(S(=O)(=O)c2ccccc2)ccc1Cl [Example 654, methyl N-{[2-chloro-5-(phenylsulfonyl)phenyl]sulfonyl}-2-methylalaninate]
–	–	1.1	–	CC(C)(CO)NS(=O)(=O)c1cc(S(=O)(=O)c2ccccc2)ccc1Cl [Example 655, 2-chloro-N-(2-hydroxy-1,1-dimethylethyl)-5-(phenylsulfonyl)benzenesulfonamide]

fold induction at 15 µM [1]	fold induction at 15 µM [2]	fold induction at 10 µM	EC50 [µM]	SMILES
–	–	1	–	N#CCNS(=O)(=O)c1cc(S(=O)(=O)c2ccccc2)ccc1Cl [Example 663, 2-chloro-N-(cyanomethyl)-5-(phenylsulfonyl)benzenesulfonamide]
–	–	1.3	–	Cc1ccc(S(=O)(=O)c2ccccc2)cc1S(=O)(=O)NCCC(=O)N1CCCC1 [Example 665, 2-methyl-N-(3-oxo-3-pyrrolidin-1-ylpropyl)-5-(phenylsulfonyl)benzenesulfonamide]
–	–	1.5	27.2	Cc1ccc(S(=O)(=O)c2ccccc2)cc1S(=O)(=O)NCCC(=O)NC(C)(C)C [Example 666, N-(tert-butyl)-N^3-{[2-methyl-5-(phenylsulfonyl)phenyl]sulfonyl}-β-alaninamide]
–	–	0.9	–	Cc1ccc(S(=O)(=O)c2ccccc2)cc1S(=O)(=O)NCCC(=O)NC1CCCc2ccccc21 (stereo not drawn) [Example 667, N^3-{[2-methyl-5-(phenylsulfonyl)phenyl]sulfonyl}-N-(1,2,3,4-tetrahydronaphthalen-1-yl)-β-alaninamide]
–	–	1.4	–	Cc1ccc(S(=O)(=O)c2ccccc2)cc1S(=O)(=O)NCCC(=O)N(C)c1ccccc1 [Example 668, N-methyl-N^3-{[2-methyl-5-(phenylsulfonyl)phenyl]sulfonyl}-N-phenyl-β-alaninamide]
–	–	0.9	–	Cc1ccc2c(c1)CCCN2C(=O)CCNS(=O)(=O)c1cc(S(=O)(=O)c2ccccc2)ccc1C [Example 669, 2-methyl-N-[3-(6-methyl-3,4-dihydroquinolin-1(2H)-yl)-3-oxopropyl]-5-(phenylsulfonyl)benzenesulfonamide]
–	–	2	15.9	O=S(=O)(NCCO)c1cc(S(=O)(=O)c2ccccc2)ccc1Cl [Example 673, 2-chloro-N-(2-hydroxyethyl)-5-(phenylsulfonyl)benzenesulfonamide]
–	–	2	24.1	CC(CO)NS(=O)(=O)c1cc(S(=O)(=O)c2ccccc2)ccc1Cl (stereo not drawn) [Example 674, 2-chloro-N-(2-hydroxy-1-methylethyl)-5-(phenylsulfonyl)benzenesulfonamide]
–	–	1.7	41.5	O=S(=O)(NC(CO)CO)c1cc(S(=O)(=O)c2ccccc2)ccc1Cl [Example 675, 2-chloro-N-[2-hydroxy-1-(hydroxymethyl)ethyl]-5-(phenylsulfonyl)benzenesulfonamide]
–	–	1.5	–	C[C@H](NS(=O)(=O)c1cc(S(=O)(=O)c2ccccc2)ccc1C(F)(F)F)[C@H](O)c1ccccc1 [Example 685, N-[(1S,2R)-2-hydroxy-1-methyl-2-phenylethyl]-5-(phenylsulfonyl)-2-(trifluoromethyl)benzenesulfonamide]
–	–	1.7	–	O=S(=O)(NC1CCN(C(=S)c2ccc(C(F)(F)F)cc2)CC1)c1cc(S(=O)(=O)c2ccccc2)ccc1C(F)(F)F [Example 724, 5-(phenylsulfonyl)-2-(trifluoromethyl)-N-(1-{[4-(trifluoromethyl)phenyl]carbonothioyl}piperidin-4-yl)benzenesulfonamide]
–	–	2.2	–	CC(C)c1ccc(S(=O)(=O)c2ccc(F)cc2)cc1S(=O)(=O)NC1CCN(C(=S)Nc2ccc(C(F)(F)F)cc2)CC1 [Example 730, 4-[({5-[(4-fluorophenyl)sulfonyl]-2-isopropylphenyl}sulfonyl)amino]-N-[4-(trifluoromethyl)phenyl]piperidine-1-carbothioamide]
–	–	1.6	–	CC(C)c1ccc(S(=O)(=O)c2ccc(F)cc2)cc1S(=O)(=O)NC(CO)C(C)C (stereo not drawn) [Example 734, 5-[(4-fluorophenyl)sulfonyl]-N-[1-(hydroxymethyl)-2-methylpropyl]-2-isopropylbenzenesulfonamide]
–	–	2.4	–	Cc1cc(C)c(S(=O)(=O)c2ccccc2)cc1S(=O)(=O)NCC(O)c1cccnc1 (stereo not drawn) [Example 737, N-(2-hydroxy-2-pyridin-3-ylethyl)-2,4-dimethyl-5-(phenylsulfonyl)benzenesulfonamide]
–	–	2.8	–	CC(C)(C)c1ccc(S(=O)(=O)N2CCC(NS(=O)(=O)c3cc(S(=O)(=O)c4ccccc4)ccc3C(F)(F)F)CC2)cc1 [Example 748, N-{1-[(4-tert-butylphenyl)sulfonyl]piperidin-4-yl}-5-(phenylsulfonyl)-2-(trifluoromethyl)benzenesulfonamide]
–	–	1.3	–	Cc1ccc(S(=O)(=O)c2ccc(F)cc2)cc1S(=O)(=O)NCC(O)c1ccccn1 (stereo not drawn) [Example 756, 5-[(4-fluorophenyl)sulfonyl]-N-(2-hydroxy-2-pyridin-2-ylethyl)-2-methylbenzenesulfonamide]
